Test results: patent publication US20220132857A1, “Disinfecting Composition and Related Methods” (priority 2020, published 2022)
Where two headings read alike, the source gives them in different places.

Experiments:
[1] = test system: Pseudomonas Aeruginosa; conditions: within 5 minutes of contact time; cited from earlier work
[2] = test system: Staphylococcus Aureus; conditions: within 5 minutes of contact time; cited from earlier work
[3] = test system: residual ATP (ATP-containing contamination including bacteria); assay: ATP bioluminescence disinfection efficacy on polyester fabric contaminated with collected water; conditions: 5 ml dropwise, after 5 minutes, before treatment Area 1: 243, Area 2: 291
Source text: Bioluminescence is a practical and simple method used to quickly assess the bio-contamination of surfaces. The method has been developed based on the biochemical adenosine triphosphate (“ATP”), which is the energy molecule of all the living organisms, luciferin/luciferase, and oxygen. The reaction results in a light-emitting decay which can be detected and related to the amount of ATP.
The luminometer (in conjunction with ATP swabs) uses bioluminescence to detect residual ATP as an indicator of surface cleanliness. The presence of ATP on a surface indicates incomplete cleaning and the presence of ATP-containing contamination including bacteria.
Test results are presented as Relative Light Units (“RLU”). RLU is the unit of measurement used in bioluminescence. When a test swab is activated, a bioluminescent reaction occurs, generating light output. Luminometers measure and quantify that light with an RLU output. […]
The relationship between the amount of ATP on the sample and the RLU result reading on the luminometer is directly proportional to the amount of ATP collected from the sample. A high RLU reading indicates a large amount of ATP at the test location. […]
Cleaning properly results in less ATP at the location. Less ATP results in less light output during the bioluminescent reaction and consequently, a lower RLU reading. […]

[4] = test system: residual ATP (ATP-containing contamination including bacteria); conditions: granite tile, 3 ml soaked through paper towel, after 5 minutes; before treatment Area 1: 1057, Area 2: 998
Source text: Therefore, the surfaces to be evaluated had to be thoroughly cleaned and tested for contamination prior to commencing the test.
Test results are presented as Relative Light Units (“RLU”). RLU is the unit of measurement used in bioluminescence. When a test swab is activated, a bioluminescent reaction occurs, generating light output. Luminometers measure and quantify that light with an RLU output.
A high RLU reading indicates a large amount of ATP at the test location. This in turn indicates improper cleaning and the presence of contaminants.
Cleaning properly results in less ATP at the location. Less ATP results in less light output during the bioluminescent reaction and consequently, a lower RLU reading.
A granite floor tile was selected and thoroughly disinfected with hot water and a cocktail of disinfectants. It was then tested for ATP until the readings consistently indicated RLU of 0-2 which represented a surface free of ATP within the margins of error.
A sample of seemingly contaminated water was collected from a pond and left stagnant for solid settlement for 3 days.
The granite tile was covered with a paper towel and the water was added to the towel in a dropwise manner until it was completely soaked. After a few hours, soaking was repeated, and the specimen was left to dry overnight. […]

Structure (SMILES)	reduction against Pseudomonas Aeruginosa [1] [Log]	reduction against Staphylococcus Aureus [2] [Log]	ATP reading after treatment [3] [RLU]	ATP reading after treatment [4] [RLU]
OO [0.6 wt. % hydrogen peroxide solution, hydrogen peroxide]	< 1	~1	–	–
OO [6 weight percent hydrogen peroxide solution]	< 2	~3	–	–
CC(C)O [commercial 70% Iso-Propyl Alcohol, Iso-Propyl Alcohol]	–	–	22	–
OO [hydrogen peroxide with no other additive, hydrogen peroxide]	–	–	–	82
